SMILES strings stand for the structures. Converted amounts (≈) assume the structure as drawn.

A word on the MIC: it is the smallest concentration in the dilution series that meets the test's criterion for growth inhibition.

This assay deals with Streptococcus pyogenes. Put plainly: In vitro minimum inhibitory concentration (MIC) vs. Strep. pyogenes. The format is cell-based. As to conditions: Streptococcus pyogenes, read-out: MIC vs. Strep. pyogenes. The method, then: The antibacterial penam compounds of the instant invention show activity against a wide variety of gram-positive and gram-negative bacteria. […] The broth is inoculated with the bacterial culture, and with the test antibiotic, and then it is incubated overnight. On the next day, the test is read visually. The minimum inhibitory concentration (MIC) is the lowest concentration of antibiotic which prevents turbidity, i.e., which prevents growth of the microorganism. In vitro activities of several of the penam compounds of the invention are presented later in this specification.
In Table II, the minimum inhibitory concentrations (MIC's) of compounds of formula I, wherein R^2 is hydrogen, against a strain of Streptococcus pyogenes, are reported; and in Table III, minimum inhibitory concentrations of compounds of formula I, wherein R^2 is hydrogen, against a strain of Staphylococcus aureus, are presented. Because of the tautomeric nature of such tetrazole derivatives, referred to hereinbefore,each of the preparations tested also contains some of the corresponding compound of formula II, wherein R^3 is hydrogen.
Consider `CC1(C)S[C@@H]2[C@H](NC(=O)[C@H](NC(=O)CNC(=N)c3nc4ccccc4[nH]3)c3ccccc3)C(=O)N2[C@H]1c1nnn[nH]1`, for which the MIC was less than 0.1 µg/mL.

Take `CC1(C)S[C@@H]2[C@H](NC(=O)[C@H](NC(=O)CNC(=N)c3cc(I)cc(C#N)c3)c3ccccc3)C(=O)N2[C@H]1c1nnn[nH]1`: the MIC is less than 0.1 µg/mL.

`CNC(=O)NCC(=O)N[C@@H](C(=O)N[C@@H]1C(=O)N2[C@@H]1SC(C)(C)[C@@H]2c1nnn[nH]1)c1ccccc1`: the MIC is less than 0.1 µg/mL.

For `CC1(C)S[C@@H]2[C@H](NC(=O)[C@H](NC(=O)CNC(=O)Nc3ccccc3)c3ccccc3)C(=O)N2[C@H]1c1nnn[nH]1`, the MIC is less than 0.1 µg/mL.

In the case of `CC1(C)S[C@@H]2[C@H](NC(=O)[C@H](NC(=O)CNC(=N)c3cc[n+]([O-])cc3)c3ccccc3)C(=O)N2[C@H]1c1nnn[nH]1`, the MIC is less than 0.1 µg/mL.

Turning to `CNC(=N)NCC(=O)N[C@@H](C(=O)N[C@@H]1C(=O)N2[C@@H]1SC(C)(C)[C@@H]2c1nn[nH]n1)c1ccccc1`, the MIC is less than 0.1 µg/mL.

For the compound `CC(=O)NCC(=O)N[C@@H](C(=O)N[C@@H]1C(=O)N2[C@@H]1SC(C)(C)[C@@H]2c1nn[nH]n1)c1ccccc1`, the MIC is less than 0.1 µg/mL.

`CC1(C)S[C@@H]2[C@H](NC(=O)[C@H](NC(=O)CNS(=O)(=O)Cc3ccccc3)c3ccccc3)C(=O)N2[C@H]1c1nn[nH]n1`: the MIC was less than 0.1 µg/mL.

Turning to `CC1(C)S[C@@H]2[C@H](NC(=O)[C@H](NC(=O)CNS(=O)(=O)c3ccccc3)c3ccccc3)C(=O)N2[C@H]1c1nn[nH]n1`, the MIC was less than 0.1 µg/mL.

For the compound `CCCC(=O)NCC(=O)N[C@@H](C(=O)N[C@@H]1C(=O)N2[C@@H]1SC(C)(C)[C@@H]2c1nnn[nH]1)c1ccccc1`, the MIC is less than 0.1 µg/mL.

In the case of `CCOC(=O)NCC(=O)N[C@@H](C(=O)N[C@@H]1C(=O)N2[C@@H]1SC(C)(C)[C@@H]2c1nnn[nH]1)c1ccccc1`, the MIC was less than 0.1 µg/mL.

Regarding `CC1(C)S[C@@H]2[C@H](NC(=O)[C@H](NC(=O)CNC(=N)N)c3ccccc3)C(=O)N2[C@H]1c1nn[nH]n1`, the MIC is less than 0.1 µg/mL.

Regarding `CC1(C)S[C@@H]2[C@H](NC(=O)[C@H](NC(=O)CNC(=N)c3cccc(S(N)(=O)=O)c3)c3ccccc3)C(=O)N2[C@H]1c1nnn[nH]1`, the MIC was less than 0.1 µg/mL.

For `CC1(C)S[C@@H]2[C@H](NC(=O)[C@H](NC(=O)CNS(C)(=O)=O)c3ccccc3)C(=O)N2[C@H]1c1nn[nH]n1`, the MIC is less than 0.1 µg/mL.

With `CC1(C)S[C@@H]2[C@H](NC(=O)[C@H](NC(=O)CNC(=O)c3ccc(Cl)cc3)c3ccccc3)C(=O)N2[C@H]1c1nnn[nH]1`, the MIC was determined as 0.1 µg/mL (≈ 0.176 µM).

In the case of `COc1ccc(C(=O)NCC(=O)N[C@@H](C(=O)N[C@@H]2C(=O)N3[C@@H]2SC(C)(C)[C@@H]3c2nnn[nH]2)c2ccccc2)cc1`, the MIC amounted to 0.1 µg/mL (≈ 0.177 µM).

As to `CC1(C)S[C@@H]2[C@H](NC(=O)[C@H](NC(=O)CNC(=N)c3ccc([N+](=O)[O-])cc3)c3ccccc3)C(=O)N2[C@H]1c1nnn[nH]1`, the minimal inhibitory concentration (MIC) was less than 0.1 µg/mL.

For the compound `CC1(C)S[C@@H]2[C@H](NC(=O)[C@H](NC(=O)CNC(=O)c3ccc([N+](=O)[O-])cc3)c3ccccc3)C(=O)N2[C@H]1c1nnn[nH]1`, the MIC is less than 0.1 µg/mL.

On to `CCC(=O)NCC(=O)N[C@@H](C(=O)N[C@@H]1C(=O)N2[C@@H]1SC(C)(C)[C@@H]2c1nn[nH]n1)c1ccccc1`, for which the MIC was less than 0.1 µg/mL.

Consider `CC1(C)S[C@@H]2[C@H](NC(=O)[C@H](NC(=O)CCC(=N)N)c3ccccc3)C(=O)N2[C@H]1c1nn[nH]n1`, for which the MIC is less than 0.1 µg/mL.

As to `CC1(C)S[C@@H]2[C@H](NC(=O)[C@H](NC(=O)Nc3ccc(Cl)cc3)c3ccc(O)cc3)C(=O)N2[C@H]1c1nnn[nH]1`, the MIC was less than 0.1 µg/mL.

With `CC1(C)S[C@@H]2[C@H](NC(=O)[C@H](NC(=O)Nc3ccc(Cl)cc3)c3ccccc3)C(=O)N2[C@H]1c1nnn[nH]1`, the MIC was less than 0.1 µg/mL.

`COc1ccc(NC(=O)N[C@@H](C(=O)N[C@@H]2C(=O)N3[C@@H]2SC(C)(C)[C@@H]3c2nnn[nH]2)c2ccc(O)cc2)cc1`: the MIC was less than 0.1 µg/mL.

In the case of `COc1ccc(NC(=O)N[C@@H](C(=O)N[C@@H]2C(=O)N3[C@@H]2SC(C)(C)[C@@H]3c2nnn[nH]2)c2ccccc2)cc1`, the MIC was less than 0.1 µg/mL.

Source of the values: patent US4115385A, “Antibacterial 3-(5-tetrazolyl) penam compounds” (Pfizer Inc., priority 1977, dated 1978).
